Laboratory results reported in ChEMBL document CHEMBL5137007, “Hamuramicin C, a Cytotoxic Bicyclic Macrolide Isolated from a Wasp Gut Bacterium” (J Nat Prod, 2022).

Assays:
HCT-116 = assay: Antiproliferative activity against human HCT-116 cells measured after 72 hrs by SRB assay; assay type: functional, cell-based; conditions: HCT-116, 72 h
A549 = assay: Antiproliferative activity against human A549 cells measured after 72 hrs by SRB assay; assay type: functional, cell-based; conditions: A549, 72 h
SK-HEP1 = assay: Antiproliferative activity against human SK-HEP1 cells measured after 72 hrs by SRB assay; assay type: functional, cell-based; conditions: SK-HEP1, 72 h
MDA-MB-231 = assay: Antiproliferative activity against human MDA-MB-231 cells measured after 72 hrs by SRB assay; assay type: functional, cell-based; conditions: MDA-MB-231, 72 h
[1] = Antiproliferative activity against human MRC5 cells measured after 72 hrs by SRB assay; assay type: toxicity, cell-based
[2] = Selectivity index, ratio of IC50 for human MRC5 cells to IC50 for human SNU-638 cells; assay type: toxicity; conditions: MRC5 cells versus SNU-638 cells, read-out: Selectivity Index
[3] = Selectivity index, ratio of IC50 for human MRC5 cells to IC50 for human HCT-116 cells; assay type: toxicity; conditions: MRC5 cells versus HCT-116 cells, read-out: Selectivity Index
SNU-638 = assay: Antiproliferative activity against human SNU-638 cells measured after 72 hrs by SRB assay; assay type: functional, cell-based; conditions: SNU-638, 72 h
[4] = Selectivity index, ratio of IC50 for human MRC5 cells to IC50 for human MDA-MB-231 cells; assay type: toxicity; conditions: MRC5 cells versus MDA-MB-231 cells, read-out: Selectivity Index
[5] = Selectivity index, ratio of IC50 for human MRC5 cells to IC50 for human A549 cells; assay type: toxicity; conditions: MRC5 cells versus A549 cells, read-out: Selectivity Index
[6] = Selectivity index, ratio of IC50 for human MRC5 cells to IC50 for human SK-HEP1 cells; assay type: toxicity; conditions: MRC5 cells versus SK-HEP1 cells, read-out: Selectivity Index

IC50 (HCT-116) | IC50 (A549) | IC50 (SK-HEP1) | IC50 (MDA-MB-231) | IC50 (SNU-638) | SMILES | IC50 at 72 h [1] | selectivity ratio [2] | selectivity ratio [3] | selectivity ratio [4] | selectivity ratio [5] | selectivity ratio [6]
1400 nM | 0.8 µM | 700 nM | 9.7 µM |  | COc1cc([C@@H]2c3cc4c(cc3[C@@H](O[C@@H]3O[C@@H]5CO[C@@H](C)O[C@H]5[C@H](O)[C@H]3O)[C@H]3COC(=O)[C@H]23)OCO4)cc(OC)c1O [ETOPOSIDE] | > 20 µM |  |  |  |  | 
1300 nM | 7.3 µM | 2600 nM | 3.4 µM | 2400 nM | CCC[C@]1(O)C[C@H](O)[C@@H](C)[C@H]([C@H](C)[C@@H]2C/C=C/C=C/C=C/[C@H](O)C(=O)/C(C)=C/C(C)=C/[C@@H](O)/C(C)=C/CC(=O)O2)O1 | 18.7 µM | 7.9 | 14.2 | 5.5 | 2.6 | 7.2
